Laboratory results as given in patent publication US20060257474A1, “Remedies for glomerular diseases” (Kowa Co., Ltd., priority 2002, published 2006).
Where a name gives a salt, the structure may show the parent alone.

Tested on: progressive anti-Thy-1 nephritic rat
Test: Pharmacological test to a progressive anti-Thy-1 nephritic rat: total amount of protein excretion in urine
Format: in vivo, Wistar female rats
Conditions: 18 h urine
Description: Wistar female rats (5 weeks of age, purchased from Japan SLC Co., Ltd.) were quarantined and acclimatized for 4 days and then used for the test. First, a right kidney of the rat was removed through a flank incision under anesthesia with pentobarbital. After 2 weeks passed, an anti-Thy-1 antibody (monoclonal antibody 1-22-3; purchased from […] Laboratories Co., Ltd.) was intravenously administered (500 μg/rat) into the tail vein to thereby bring about progressive renal damage, and the following tests 1 to 3 were immediately investigated. […] Control group (antibody-treated and compound-non-administered group): N=8, an antibody-non-treated group: N=6. Test 2: dilazep hydrochloride (10 mg/kg) dissolved in a physiological saline was continuously intraperitoneally administered for 10 weeks. Control group (antibody-treated and compound-non-administered group): N=8, an antibody-non-treated group: N=6. […] Control group (antibody-treated and compound-non-administered group): N=10, an antibody-non-treated group: N=6. In each test, after administering the drugs for 10 weeks, urine was taken for 18 hours by means of a metabolic cage (Sugiyama Gen Co., Ltd.) to measure the total amount of protein excretion in urine.

Row | SMILES | total amount of protein excretion in urine (dilazep hydrochloride alone, 10 mg/kg intraperitoneally for 10 weeks, vs compound-non-administered control group (FIG. 2)) | total amount of protein excretion in urine (pitavastatin calcium alone, 10 mg/kg orally for 10 weeks, vs compound-non-administered control group (FIG. 1))
1 | COc1cc(C(=O)OCCCN2CCCN(CCCOC(=O)c3cc(OC)c(OC)c(OC)c3)CC2)cc(OC)c1OC [dilazep hydrochloride] | almost the same as that of the compound-non-administered group in the control | 
2 | O=C([O-])C[C@H](O)C[C@H](O)/C=C/c1c(C2CC2)nc2ccccc2c1-c1ccc(F)cc1.O=C([O-])C[C@H](O)C[C@H](O)/C=C/c1c(C2CC2)nc2ccccc2c1-c1ccc(F)cc1.[Ca+2] [pitavastatin calcium] |  | almost the same as that of the compound-non-administered group in the control
